System: 242566-281-R-J2-PDC complex spheroid viability
Assay: Anticancer human tumor 242566-281-R-J2-PDC patient-derived pancreatic carcinoma cell line growth inhibition [RAS]
Details: for IC50: curve of first compound; for viability, T/C: stronger effect = lower value
Summary of the method: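 Tumour cells grown as complex spheroids with HUVEC endothelial cells and mesenchymal stem cells, treated with RAS pathway inhibitor combinations. Each agent spans half-log steps from near clinical Cmax, or 10 microM where Cmax is unknown.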
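Further: spheroids exposed to compound for 7 days before readout.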
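Wherever viability, T/C is given: 100% = DMSO vehicle control wells.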

Structure (SMILES): CCN1CCN(Cc2ccc(Nc3ncc(F)c(-c4cc(F)c5nc(C)n(C(C)C)c5c4)n3)nc2)CC1 + C#Cc1c(F)ccc2cc(O)cc(-c3ncc4c(N5CC6CCC(C5)N6)nc(OCC56CCCN5CC(F)C6)nc4c3F)c12
- IC50 (second compound 0.0316 µM): > 1000 nM
- IC50 (second compound 0.1 µM): > 1000 nM
- IC50 (second compound 0.316 µM): > 1000 nM
- IC50 (second compound 1 µM): 3.16 nM
- IC50 (second compound 3.16 µM): < 3.16 nM
- IC50 (second compound 10 µM): < 3.16 nM
- viability, T/C (second compound 0.0316 µM, first compound 0.00316 µM): 110%
- viability, T/C (second compound 0.0316 µM, first compound 0.01 µM): 108%
- viability, T/C (second compound 0.0316 µM, first compound 0.0316 µM): 85%
- viability, T/C (second compound 0.0316 µM, first compound 0.1 µM): 61.7%
- viability, T/C (second compound 0.0316 µM, first compound 0.316 µM): 84.9%
- viability, T/C (second compound 0.0316 µM, first compound 1 µM): 99%
- viability, T/C (second compound 0.1 µM, first compound 0.00316 µM): 95%
- viability, T/C (second compound 0.1 µM, first compound 0.01 µM): 81.1%
- viability, T/C (second compound 0.1 µM, first compound 0.0316 µM): 77.5%
- viability, T/C (second compound 0.1 µM, first compound 0.1 µM): 56.5%
- viability, T/C (second compound 0.1 µM, first compound 0.316 µM): 76%
- viability, T/C (second compound 0.1 µM, first compound 1 µM): 85.2%
- viability, T/C (second compound 0.316 µM, first compound 0.00316 µM): 79.9%
- viability, T/C (second compound 0.316 µM, first compound 0.01 µM): 72%
- viability, T/C (second compound 0.316 µM, first compound 0.0316 µM): 46.7%
- viability, T/C (second compound 0.316 µM, first compound 0.1 µM): 51.9%
- viability, T/C (second compound 0.316 µM, first compound 0.316 µM): 72%
- viability, T/C (second compound 0.316 µM, first compound 1 µM): 87.3%
- viability, T/C (second compound 1 µM, first compound 0.00316 µM): 64.5%
- viability, T/C (second compound 1 µM, first compound 0.01 µM): 62.1%
- viability, T/C (second compound 1 µM, first compound 0.0316 µM): 50.5%
- viability, T/C (second compound 1 µM, first compound 0.1 µM): 43.5%
- viability, T/C (second compound 1 µM, first compound 0.316 µM): 63.3%
- viability, T/C (second compound 1 µM, first compound 1 µM): 77.1%
- viability, T/C (second compound 3.16 µM, first compound 0.00316 µM): 56.6%
- viability, T/C (second compound 3.16 µM, first compound 0.01 µM): 47.2%
- viability, T/C (second compound 3.16 µM, first compound 0.0316 µM): 31.6%
- viability, T/C (second compound 3.16 µM, first compound 0.1 µM): 37.3%
- viability, T/C (second compound 3.16 µM, first compound 0.316 µM): 58.5%
- viability, T/C (second compound 3.16 µM, first compound 1 µM): 72.4%
- viability, T/C (second compound 10 µM, first compound 0.00316 µM): 54.3%
- viability, T/C (second compound 10 µM, first compound 0.01 µM): 48.2%
- viability, T/C (second compound 10 µM, first compound 0.0316 µM): 40.1%
- viability, T/C (second compound 10 µM, first compound 0.1 µM): 37.6%
- viability, T/C (second compound 10 µM, first compound 0.316 µM): 51.7%
- viability, T/C (second compound 10 µM, first compound 1 µM): 63.1%

Structure (SMILES): CC(C)NCC(C(=O)N1CCN(c2ncnc3c2C(C)CC3O)CC1)c1ccc(Cl)cc1 (centres undefined) + CCn1c(-c2cccnc2C(C)OC)c2c3cc(ccc31)N1CCOC(CC(NC(=O)C(C(C)C)N(C)C(=O)C3(F)CCN(C(=O)C#CC(C)(C)N(C)C)CC3)C(=O)N3CCCC(N3)C(=O)OCC(C)(C)C2)C1
- IC50 (second compound 0.000949 µM): > 10000 nM
- IC50 (second compound 0.003 µM): > 10000 nM
- IC50 (second compound 0.00949 µM): > 10000 nM
- IC50 (second compound 0.03 µM): > 10000 nM
- IC50 (second compound 0.0949 µM): > 10000 nM
- IC50 (second compound 0.3 µM): > 10000 nM
- viability, T/C (second compound 0.000949 µM, first compound 0.0316 µM): 92%
- viability, T/C (second compound 0.000949 µM, first compound 0.1 µM): 98.4%
- viability, T/C (second compound 0.000949 µM, first compound 0.316 µM): 84.9%
- viability, T/C (second compound 0.000949 µM, first compound 1 µM): 92.2%
- viability, T/C (second compound 0.000949 µM, first compound 3.16 µM): 96.8%
- viability, T/C (second compound 0.000949 µM, first compound 10 µM): 56.7%
- viability, T/C (second compound 0.003 µM, first compound 0.0316 µM): 111%
- viability, T/C (second compound 0.003 µM, first compound 0.1 µM): 73.6%
- viability, T/C (second compound 0.003 µM, first compound 0.316 µM): 95.2%
- viability, T/C (second compound 0.003 µM, first compound 1 µM): 81.6%
- viability, T/C (second compound 0.003 µM, first compound 3.16 µM): 84.9%
- viability, T/C (second compound 0.003 µM, first compound 10 µM): 55.5%
- viability, T/C (second compound 0.00949 µM, first compound 0.0316 µM): 109%
- viability, T/C (second compound 0.00949 µM, first compound 0.1 µM): 70.8%
- viability, T/C (second compound 0.00949 µM, first compound 0.316 µM): 97.5%
- viability, T/C (second compound 0.00949 µM, first compound 1 µM): 79.2%
- viability, T/C (second compound 0.00949 µM, first compound 3.16 µM): 74.1%
- viability, T/C (second compound 0.00949 µM, first compound 10 µM): 56.4%
- viability, T/C (second compound 0.03 µM, first compound 0.0316 µM): 96%
- viability, T/C (second compound 0.03 µM, first compound 0.1 µM): 91.2%
- viability, T/C (second compound 0.03 µM, first compound 0.316 µM): 93.6%
- viability, T/C (second compound 0.03 µM, first compound 1 µM): 79.2%
- viability, T/C (second compound 0.03 µM, first compound 3.16 µM): 69.8%
- viability, T/C (second compound 0.03 µM, first compound 10 µM): 72.7%
- viability, T/C (second compound 0.0949 µM, first compound 0.0316 µM): 88.9%
- viability, T/C (second compound 0.0949 µM, first compound 0.1 µM): 87.5%
- viability, T/C (second compound 0.0949 µM, first compound 0.316 µM): 104%
- viability, T/C (second compound 0.0949 µM, first compound 1 µM): 97.7%
- viability, T/C (second compound 0.0949 µM, first compound 3.16 µM): 65.9%
- viability, T/C (second compound 0.0949 µM, first compound 10 µM): 59.9%
- viability, T/C (second compound 0.3 µM, first compound 0.0316 µM): 85.8%
- viability, T/C (second compound 0.3 µM, first compound 0.1 µM): 88.7%
- viability, T/C (second compound 0.3 µM, first compound 0.316 µM): 85.4%
- viability, T/C (second compound 0.3 µM, first compound 1 µM): 74%
- viability, T/C (second compound 0.3 µM, first compound 3.16 µM): 62.3%
- viability, T/C (second compound 0.3 µM, first compound 10 µM): 52.3%

Source: PubChem BioAssay AID2060910 (Molecular Pharmacology Branch, DTP, NCI, 2025)
